Data published in ChEMBL document CHEMBL3286241, “Dammarane-type triterpenoids from Gentianella azurea” (J Nat Prod, 2014).

System: RAW264.7
Test: Antiinflammatory activity in mouse RAW264.7 cells assessed as inhibition of LPS-induced NO production after 24 hrs by Griess assay
Type: functional, cell-based
Settings: RAW264.7, 24 h

Row | SMILES | IC50
1 | CC1(C)O[C@](C(=O)O)([C@H]2CC[C@]3(C)[C@@H]2CC[C@@H]2[C@@]4(C)CC[C@H](O[C@@H]5O[C@H](CO)[C@@H](O)[C@H](O)[C@H]5O)[C@](C)(CO)[C@@H]4CC[C@]23C)C[C@H](O)[C@@H]1O [GENTIRIGEOSIDE A] | 6.6 µM
2 | COc1ccc2c(c1)c(CC(=O)O)c(C)n2C(=O)c1ccc(Cl)cc1 [INDOMETHACIN] | 1.25 µM
